The target of this test is T1, Recombinant human IKKβ (IKK2) (Homo sapiens, UniProt O14920).
T1 construct: Recombinant human IKKβ (residues 1-737); GST (C); made in house
T1 sequence (O14920 1-737): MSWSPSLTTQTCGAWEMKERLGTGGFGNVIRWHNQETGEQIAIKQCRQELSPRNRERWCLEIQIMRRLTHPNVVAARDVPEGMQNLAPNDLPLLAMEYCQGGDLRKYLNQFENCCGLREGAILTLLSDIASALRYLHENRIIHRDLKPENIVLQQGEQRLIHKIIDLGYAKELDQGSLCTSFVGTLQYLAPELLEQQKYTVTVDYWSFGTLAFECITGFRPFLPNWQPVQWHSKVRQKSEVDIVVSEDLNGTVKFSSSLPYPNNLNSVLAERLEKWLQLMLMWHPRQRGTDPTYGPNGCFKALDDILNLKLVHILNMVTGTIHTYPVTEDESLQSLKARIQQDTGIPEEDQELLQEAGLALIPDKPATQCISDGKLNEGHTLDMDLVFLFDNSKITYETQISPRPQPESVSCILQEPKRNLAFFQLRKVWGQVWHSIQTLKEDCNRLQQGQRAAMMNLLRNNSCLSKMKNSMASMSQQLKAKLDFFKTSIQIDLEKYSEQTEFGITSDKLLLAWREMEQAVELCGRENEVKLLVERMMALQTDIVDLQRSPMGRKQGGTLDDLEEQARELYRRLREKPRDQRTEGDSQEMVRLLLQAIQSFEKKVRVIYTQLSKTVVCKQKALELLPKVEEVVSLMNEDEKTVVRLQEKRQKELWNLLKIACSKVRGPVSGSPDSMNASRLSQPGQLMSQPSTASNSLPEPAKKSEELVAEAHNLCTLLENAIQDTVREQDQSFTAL
Description: IKK2 Assay (TR-FRET, phosphorylation of GST-IκBα). The format is biochemical. To be noted: recombinant human IKKβ (residues 1-737), 5 nM; GST-IκBα 25 nM, ATP 1 μM; 30 minutes at room temperature; read-out: pIC50 against IKK2 (converted). On the procedure: Recombinant human IKKβ (residues 1-737) was expressed in baculovirus as a C-terminal GST-tagged fusion protein, and its activity was assessed using a time-resolved fluorescence resonance energy transfer (TR-FRET) assay. Briefly, IKK2 (5 nM final) diluted in assay buffer (50 mM HEPES, 10 mM MgCl2, 1 mM CHAPS pH 7.4 with 1 mM DTT and 0.01% w/v BSA) was added to wells containing various concentrations of compound or DMSO vehicle (3% final). The reaction was initiated by the addition of GST-IκBα substrate (25 nM final)/ATP (1 μM final), in a total volume of 30 μl. The reaction was incubated for 30 minutes at room temperature, then terminated by the addition of 15 μl of 50 mM EDTA. Detection reagent (15 μl) in buffer (100 mM HEPES pH 7.4, 150 mM NaCl and 0.1% w/v BSA) containing antiphosphoserine-IκBα-32/36 monoclonal antibody 12C2 (Cell Signalling Technology, Beverly Mass., USA) labelled with W-1024 europium chelate (Wallac OY, Turku, Finland), and an APC-labelled anti-GST antibody (Prozyme, San Leandro, Calif., USA) was added and the reaction was further incubated for 60 minutes at room temperature. The degree of phosphorylation of GST-IκBα was measured using a Packard Discovery plate reader (Perkin-Elmer Life Sciences, Pangbourne, UK) as a ratio of specific 665 nm energy transfer signal to reference europium 620 nm signal.

Consider `NC(=O)c1cc2cc(-c3ccccc3)cc(C(N)=O)c2[nH]1` [Example 2, 5-phenyl-1H-indole-2,7-dicarboxamide], for which the IC50 is not above 10 µM.

As to `Cc1cc2cc(-c3ccccc3)cc(C(N)=O)c2[nH]1` [Example 1, 2-methyl-5-phenyl-1H-indole-7-carboamide], the IC50 was not above 10 µM.

The values above are taken from patent US20080293802A1, “Chemical Compounds” (Smithline Beecham Corporation, priority 2005, published 2008).
